Data: patent US7893256B2, “Azabicycloalkane compounds” (Theravance, Inc., priority 2003, dated 2011)

Molecular target: T1, hM3 receptor (Homo sapiens, UniProt P20309)
T1 construct: expressed in transfected cells
Test: Blockade of agonist-mediated calcium release via FLIPR assays (Assay Test Procedure D, C)
Format: cell-based
Settings: CHO cells stably expressing the hM3 receptor
Excerpt: Muscarinic receptor subtypes (M1, M3 and M5 receptors), which couple to Gq proteins, activate the phospholipase C (PLC) pathway upon agonist binding to the receptor. As a result, activated PLC hydrolyzes phosphatyl inositol diphosphate (PIP2) to diacylglycerol (DAG) and […] (IP3), which in turn generates calcium release from intracellular stores, i.e., endoplasmic and sarcoplasmic reticulum. The FLIPR (Molecular Devices, Sunnyvale, Calif.) assay capitalizes on this increase in intracellular calcium by using a calcium sensitive dye (Fluo-4AM, Molecular Probes, Eugene, Oreg.) that fluoresces when free calcium binds. This fluorescence event is measured in real time by the FLIPR, which detects the change in fluorescence from a monolayer of cells cloned with human M1 and M3, and chimpanzee M5 receptors. Antagonist potency can be determined by the ability of antagonists to inhibit agonist-mediated increases in intracellular calcium. […]
To determine antagonist potency, the dose-dependent stimulation of intracellular Ca^2+ release for oxotremorine was first determined so that antagonist potency can later be measured against oxotremorine stimulation at an EC90 concentration. […]
The change of fluorescence is expressed as maximum fluorescence minus baseline fluorescence for each well. […]

T1 sequence (P20309 whole entry): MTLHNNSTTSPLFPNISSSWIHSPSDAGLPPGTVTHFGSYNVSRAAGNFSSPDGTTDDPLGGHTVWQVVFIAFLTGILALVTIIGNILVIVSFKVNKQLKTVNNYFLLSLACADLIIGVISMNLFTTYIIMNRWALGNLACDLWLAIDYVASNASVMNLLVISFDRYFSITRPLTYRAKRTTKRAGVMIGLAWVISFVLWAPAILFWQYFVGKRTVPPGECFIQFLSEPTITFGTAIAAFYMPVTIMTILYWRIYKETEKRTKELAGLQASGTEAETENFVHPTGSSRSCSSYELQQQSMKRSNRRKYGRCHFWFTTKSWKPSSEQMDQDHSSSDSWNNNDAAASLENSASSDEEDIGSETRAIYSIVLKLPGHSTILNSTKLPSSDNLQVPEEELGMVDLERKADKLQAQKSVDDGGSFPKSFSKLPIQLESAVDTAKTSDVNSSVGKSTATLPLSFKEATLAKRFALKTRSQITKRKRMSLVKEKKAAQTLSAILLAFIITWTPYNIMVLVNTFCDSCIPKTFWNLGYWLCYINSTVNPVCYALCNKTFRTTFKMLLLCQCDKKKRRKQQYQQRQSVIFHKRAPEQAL

With C[N+]1(CCCCCCCCCNC[C@H](O)c2ccc(O)c3[nH]c(=O)ccc23)C2CC(OC(=O)C(O)(c3cccs3)c3cccs3)CC1C1OC12.C[N+]1(CCCCCCCCCNC[C@H](O)c2ccc(O)c3[nH]c(=O)ccc23)C2CC(OC(=O)C(O)(c3cccs3)c3cccs3)CC1C1OC12.O=C([O-])C(F)(F)F.O=C([O-])C(F)(F)F (stereo partly drawn) [Example 1, 7-(2-Hydroxy-2,2-dithiophen-2-ylacetoxy)-9-{9-[(R)-2-hydroxy-2-(8-hydroxy-2-oxo-1,2-dihydroquinolin-5-yl)ethylamino]nonyl}-9-methyl-3-oxa-9-azonia-tricyclo[3.3.1.0^2,4]nonane Ditrifluoroacetate] the Ki was < 0.05 µM.
